From patent publication US9426996B2, “Use of benzoxaboroles as volatile antimicrobial agents on meats, plants, or plant parts” (AgroFresh Inc., priority 2013, dated 2016)

Experiments:
Penicillium expansum [1] = experiment: in vitro spore germination assay, temperature regimes; format: cell-based; conditions: P. expansum spores; for inhibition at 0.035 µg/mL: 0.035 mg/L; for inhibition at 0.07 µg/mL: 0.07 mg/L; for inhibition at 0.14 µg/mL: 0.14 mg/L
Method: (§1) In order to assess the activity of Compound A as a volatile fungicide, an in vitro assay is developed to evaluate spore germination. Two mL of water agar is poured in 3.5 cm Petri plates. […] Plates are then incubated for either one day at 0° C., five day at 0° C., or five day at 0° C. plus an additional one or two days at 21° C.

Botrytis cinerea [2] = experiment: as above; format: cell-based; conditions: B. cinerea spores; for inhibition at 0.035 µg/mL: 0.035 mg/L; for inhibition at 0.07 µg/mL: 0.07 mg/L; for inhibition at 0.14 µg/mL: 0.14 mg/L
Method: as §1

Botrytis cinerea [3] = experiment: in vitro spore germination and mycelial growth after transfer; format: cell-based; conditions: for Mycelial growth after transfer (%): 3 d after transfer to clean PDA
Method: In order to assess the activity of Compound A as a volatile fungicide, an in vitro assay is developed to evaluate spore germination. 3.5-cm Petri plates are filled with 2 mL of water agar. After cooling, 1 μL of 1×10^5 per mL Botrytis cinerea spore suspension is spot-pipetted into the center of the plate. Plates are inoculated immediately prior to volatile fungicide treatment. A Whatman #1 filter disk (Cat. No. 1001-0155) is placed, in duplicate, on the underside of a plate lid. […] After 24 hours of storage at 23° C., 100 spores are counted for percent germination, where germination is defined as a germ tube that has extended a distance greater than the length of the spore. After counting, treatment is removed, and the plates are resealed. After an additional 24 hours, 100 spores are again counted. Plugs are then transferred to a clean plate containing full-strength PDA and allowed to incubate at 23° C. for an additional three days.

Botrytis cinerea [4] = experiment: white carnations with natural inoculum, fog or passive volatile treatment; format: in vivo; conditions: 8 days of shelf-life
Method: A similar test like the one described above is also performed on white carnations (treated with or without the commercial anti-ethylene compound silver thiosulfate; STS) with natural inoculum. Compound A is either dissolved in an aqueous 1,2-propylene glycol solution (3:1) and 5 mL of the solution volatilized using an ES-100-H SmartFog system (Reno, Nev.) through a ½″ side port that is sealed immediately after the application, or dissolved in acetone and applied to a 42.5 millimeter (mm) Whatman #1 filter disk (Cat. No. 1001-042), and placed on a watch glass after allowing the acetone to evaporate for 5 minutes. The flowers are incubated for 3 days at 21° C. After storage, the flowers are evaluated for an additional 8 days for disease severity based on the number of lesions present on flower petals and sepals.

Penicillium expansum [5] = experiment: in vivo contact drench assay on apples
Method: In order to assess the activity of Compound A (FIG. 1) as a contact drench fungicide, an in vivo assay is developed. […] Compound A is dissolved in water to achieve a final treatment solution concentration of 250, 50, or 10 mg/L. The fruit is dipped in Compound A solution for 1 minute and allowed to dry for 1 hour. Fruit wounds are then inoculated with 30 μL of 1×10^6 per mL Penicillium expansum spore suspension (apple) or Penicillium digitatum spore suspension (orange). Clamshells are then placed in a 10.8-cup SnapWare airtight container (Model #109842) and incubated for 3 days at 21° C.

## OB1OCc2cc(F)ccc21 [Compound A]
Penicillium expansum [1]; 24 h, 1 day, 0° C.
  inhibition at 0.035 µg/mL: 0%
  inhibition at 0.07 µg/mL: 0%
  inhibition at 0.14 µg/mL: 0%
Penicillium expansum [1]; 120 h, 5 day, 0° C.
  inhibition at 0.035 µg/mL: 0%
  inhibition at 0.07 µg/mL: 0%
  inhibition at 0.14 µg/mL: 0%
Penicillium expansum [1]; 5 day, 0° C. 1 day, 21° C.
  inhibition at 0.035 µg/mL: 0%
  inhibition at 0.07 µg/mL: 0%
  inhibition at 0.14 µg/mL: 0%
Botrytis cinerea [2]; 24 h, 1 day, 0° C.
  inhibition at 0.035 µg/mL: 0%
  inhibition at 0.07 µg/mL: 0%
  inhibition at 0.14 µg/mL: 0%
Botrytis cinerea [2]; 120 h, 5 day, 0° C.
  inhibition at 0.035 µg/mL: 0%
  inhibition at 0.07 µg/mL: 0%
  inhibition at 0.14 µg/mL: 0%
Botrytis cinerea [2]; 5 day, 0° C. 1 day, 21° C.
  inhibition at 0.035 µg/mL: 0%
  inhibition at 0.07 µg/mL: 0%
  inhibition at 0.14 µg/mL: 0%
Botrytis cinerea [3]; 0.07 mg/L, 24 h + 24 h after treatment removal
  Spore germination (%): 10.0%
Botrytis cinerea [3]; 0.07 mg/L, 24 h treatment
  Spore germination (%): 0.0%
Botrytis cinerea [3]; 0.07 mg/L
  Mycelial growth after transfer (%): 60.3%
Botrytis cinerea [3]; 0.14 mg/L, 24 h + 24 h after treatment removal
  Spore germination (%): 0.0%
Botrytis cinerea [3]; 0.14 mg/L, 24 h treatment
  Spore germination (%): 0.0%
Botrytis cinerea [3]; 0.14 mg/L
  Mycelial growth after transfer (%): 53.8%
Botrytis cinerea [3]; 0.28 mg/L, 24 h + 24 h after treatment removal
  Spore germination (%): 0.0%
Botrytis cinerea [3]; 0.28 mg/L, 24 h treatment
  Spore germination (%): 0.0%
Botrytis cinerea [3]; 0.28 mg/L
  Mycelial growth after transfer (%): 51.3%
Botrytis cinerea [3]; 0.56 mg/L, 24 h + 24 h after treatment removal
  Spore germination (%): 0.0%
Botrytis cinerea [3]; 0.56 mg/L, 24 h treatment
  Spore germination (%): 0.0%
Botrytis cinerea [3]; 0.56 mg/L
  Mycelial growth after transfer (%): 43.3%
Botrytis cinerea [3]; 71.4 mg/L, 24 h + 24 h after treatment removal
  Spore germination (%): 0.0%
Botrytis cinerea [3]; 71.4 mg/L, 24 h treatment
  Spore germination (%): 0.0%
Botrytis cinerea [3]; 71.4 mg/L
  Mycelial growth after transfer (%): 0.0%
Botrytis cinerea [3]; 142.9 mg/L, 24 h + 24 h after treatment removal
  Spore germination (%): 0.0%
Botrytis cinerea [3]; 142.9 mg/L, 24 h treatment
  Spore germination (%): 0.0%
Botrytis cinerea [3]; 142.9 mg/L
  Mycelial growth after transfer (%): 0.0%
Botrytis cinerea [3]; treated spores after the compound has been removed
  fungicidal or fungistatic effect: fungicidal effect
Botrytis cinerea [4]; Petals, 0.04 mg/L, Non-STS, Fog
  Severity (Average Number of Lesions): 0.4
Botrytis cinerea [4]; Petals, 0.04 mg/L, Non-STS, Volatile
  Severity (Average Number of Lesions): 3.1
Botrytis cinerea [4]; Petals, 0.04 mg/L, STS, Fog
  Severity (Average Number of Lesions): 0.3
Botrytis cinerea [4]; Petals, 0.04 mg/L, STS, Volatile
  Severity (Average Number of Lesions): 0.5
Botrytis cinerea [4]; Petals, 0.2 mg/L, Non-STS, Fog
  Severity (Average Number of Lesions): 0
Botrytis cinerea [4]; Petals, 0.2 mg/L, Non-STS, Volatile
  Severity (Average Number of Lesions): 1.8
Botrytis cinerea [4]; Petals, 0.2 mg/L, STS, Fog
  Severity (Average Number of Lesions): 0
Botrytis cinerea [4]; Petals, 0.2 mg/L, STS, Volatile
  Severity (Average Number of Lesions): 0.1
Botrytis cinerea [4]; Petals, 1 mg/L, Non-STS, Fog
  Severity (Average Number of Lesions): 0
Botrytis cinerea [4]; Petals, 1 mg/L, Non-STS, Volatile
  Severity (Average Number of Lesions): 1.5
Botrytis cinerea [4]; Petals, 1 mg/L, STS, Fog
  Severity (Average Number of Lesions): 0
Botrytis cinerea [4]; Petals, 1 mg/L, STS, Volatile
  Severity (Average Number of Lesions): 0.1
Botrytis cinerea [4]; Sepals, 0.04 mg/L, Non-STS, Fog
  Severity (Average Number of Lesions): 0.3
Botrytis cinerea [4]; Sepals, 0.04 mg/L, Non-STS, Volatile
  Severity (Average Number of Lesions): 2.1
Botrytis cinerea [4]; Sepals, 0.04 mg/L, STS, Fog
  Severity (Average Number of Lesions): 0.6
Botrytis cinerea [4]; Sepals, 0.04 mg/L, STS, Volatile
  Severity (Average Number of Lesions): 1.1
Botrytis cinerea [4]; Sepals, 0.2 mg/L, Non-STS, Fog
  Severity (Average Number of Lesions): 0.04
Botrytis cinerea [4]; Sepals, 0.2 mg/L, Non-STS, Volatile
  Severity (Average Number of Lesions): 1.6
Botrytis cinerea [4]; Sepals, 0.2 mg/L, STS, Fog
  Severity (Average Number of Lesions): 0.1
Botrytis cinerea [4]; Sepals, 0.2 mg/L, STS, Volatile
  Severity (Average Number of Lesions): 0.3
Botrytis cinerea [4]; Sepals, 1 mg/L, Non-STS, Fog
  Severity (Average Number of Lesions): 0.04
Botrytis cinerea [4]; Sepals, 1 mg/L, Non-STS, Volatile
  Severity (Average Number of Lesions): 1
Botrytis cinerea [4]; Sepals, 1 mg/L, STS, Fog
  Severity (Average Number of Lesions): 0.04
Botrytis cinerea [4]; Sepals, 1 mg/L, STS, Volatile
  Severity (Average Number of Lesions): 0.2
Penicillium expansum [5]; dip 10 mg/L
  Browning (mm): 8.5 mm
  Sporulation (mm): 2.1 mm
Penicillium expansum [5]; dip 50 mg/L
  Browning (mm): 3.7 mm
  Sporulation (mm): 1.6 mm
Penicillium expansum [5]; dip 250 mg/L
  Browning (mm): 0.8 mm
  Sporulation (mm): 0.5 mm
